Assays:
Assay in all cases: relative viability (nuclei count vs DMSO), 5 days (fraction); higher = more cells survive
ChaGo-K-1 = tested on: ChaGo-K-1
Outline: (§1)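 Values are medians from duplicate plates. Each reflects relative viability, defined as the nuclei count of treated wells over that of vehicle wells. Lung cancer cell lines in 1536-well plates were pin-tool dosed one day after seeding with one drug alone or with a fixed anchor-drug dose plus five library-drug doses (not always all listed) in √10 steps, then fixed, stained and imaged at 4× after 5 days.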

EKVX = tested on: EKVX
Outline: as §1

EMC-BAC-2 = tested on: EMC-BAC-2
Outline: as §1

EPLC-272H = tested on: EPLC-272H
Outline: as §1

HCC-78 = tested on: HCC-78
Outline: as §1

HCC-827 = tested on: HCC-827
Outline: as §1

LCLC-103H = tested on: LCLC-103H
Outline: as §1

LK-2 = tested on: LK-2
Outline: as §1

LU99A = tested on: LU99A
Outline: as §1

NCI-H1563 = tested on: NCI-H1563
Outline: as §1

NCI-H1666 = tested on: NCI-H1666
Outline: as §1

NCI-H1975 = tested on: NCI-H1975
Outline: as §1

NCI-H2126 = tested on: NCI-H2126
Outline: as §1

NCI-H2342 = tested on: NCI-H2342
Outline: as §1

NCI-H23 = tested on: NCI-H23
Outline: as §1

NCI-H2405 = tested on: NCI-H2405
Outline: as §1

NCI-H322M = tested on: NCI-H322M
Outline: as §1

PC-14 = tested on: PC-14
Outline: as §1

RERF-LC-KJ = tested on: RERF-LC-KJ
Outline: as §1

SK-LU-1 = tested on: SK-LU-1
Outline: as §1

SW 1573 = tested on: SW 1573
Outline: as §1

SW 900 = tested on: SW 900
Outline: as §1

Compound: Cc1sc2c(c1C)C(c1ccc(Cl)cc1)=N[C@@H](CC(=O)OC(C)(C)C)c1nnc(C)n1-2 [JQ1] + N=C(N)NC(=N)NCCc1ccccc1 [Phenformin] (partner 250 µM)
- relative viability (ChaGo-K-1; first compound 0.04 µM): 0.436
- relative viability (ChaGo-K-1; first compound 0.1265 µM): 0.495
- relative viability (ChaGo-K-1; first compound 0.4 µM): 0.401
- relative viability (ChaGo-K-1; first compound 1.265 µM): 0.324
- relative viability (ChaGo-K-1; first compound 4 µM): 0.286
- relative viability (EKVX; first compound 0.04 µM): 0.257
- relative viability (EKVX; first compound 0.1265 µM): 0.257
- relative viability (EKVX; first compound 0.4 µM): 0.27
- relative viability (EKVX; first compound 1.265 µM): 0.243
- relative viability (EKVX; first compound 4 µM): 0.218
- relative viability (EMC-BAC-2; first compound 0.04 µM): 0.551
- relative viability (EMC-BAC-2; first compound 0.1265 µM): 0.326
- relative viability (EMC-BAC-2; first compound 0.4 µM): 0.454
- relative viability (EMC-BAC-2; first compound 1.265 µM): 0.267
- relative viability (EMC-BAC-2; first compound 4 µM): 0.264
- relative viability (EPLC-272H; first compound 0.04 µM): 0.33
- relative viability (EPLC-272H; first compound 0.1265 µM): 0.262
- relative viability (EPLC-272H; first compound 0.4 µM): 0.249
- relative viability (EPLC-272H; first compound 1.265 µM): 0.294
- relative viability (EPLC-272H; first compound 4 µM): 0.188
- relative viability (HCC-78; first compound 0.04 µM): 0.727
- relative viability (HCC-78; first compound 0.1265 µM): 0.657
- relative viability (HCC-78; first compound 0.4 µM): 0.727
- relative viability (HCC-78; first compound 1.265 µM): 0.515
- relative viability (HCC-78; first compound 4 µM): 0.435
- relative viability (HCC-827; first compound 0.04 µM): 0.395
- relative viability (HCC-827; first compound 0.4 µM): 0.349
- relative viability (HCC-827; first compound 1.265 µM): 0.468
- relative viability (HCC-827; first compound 4 µM): 0.449
- relative viability (LCLC-103H; first compound 0.04 µM): 0.345
- relative viability (LCLC-103H; first compound 0.1265 µM): 0.308
- relative viability (LCLC-103H; first compound 0.4 µM): 0.371
- relative viability (LCLC-103H; first compound 1.265 µM): 0.268
- relative viability (LCLC-103H; first compound 4 µM): 0.28
- relative viability (LK-2; first compound 0.04 µM): 0.298
- relative viability (LK-2; first compound 0.1265 µM): 0.379
- relative viability (LK-2; first compound 0.4 µM): 0.21
- relative viability (LK-2; first compound 1.265 µM): 0.101
- relative viability (LK-2; first compound 4 µM): 0.147
- relative viability (LU99A; first compound 0.04 µM): 0.776
- relative viability (LU99A; first compound 0.1265 µM): 0.35
- relative viability (LU99A; first compound 0.4 µM): 0.734
- relative viability (LU99A; first compound 1.265 µM): 0.303
- relative viability (LU99A; first compound 4 µM): 0.26
- relative viability (NCI-H1563; first compound 0.04 µM): 0.672
- relative viability (NCI-H1563; first compound 0.1265 µM): 0.571
- relative viability (NCI-H1563; first compound 0.4 µM): 0.682
- relative viability (NCI-H1563; first compound 1.265 µM): 0.596
- relative viability (NCI-H1563; first compound 4 µM): 0.568
- relative viability (NCI-H1666; first compound 0.04 µM): 0.572
- relative viability (NCI-H1666; first compound 0.1265 µM): 0.596
- relative viability (NCI-H1666; first compound 0.4 µM): 0.501
- relative viability (NCI-H1666; first compound 1.265 µM): 0.516
- relative viability (NCI-H1666; first compound 4 µM): 0.486
- relative viability (NCI-H1975; first compound 0.04 µM): 0.41
- relative viability (NCI-H1975; first compound 0.1265 µM): 0.31
- relative viability (NCI-H1975; first compound 0.4 µM): 0.381
- relative viability (NCI-H1975; first compound 1.265 µM): 0.299
- relative viability (NCI-H1975; first compound 4 µM): 0.297
- relative viability (NCI-H2126; first compound 0.04 µM): 0.552
- relative viability (NCI-H2126; first compound 0.1265 µM): 0.555
- relative viability (NCI-H2126; first compound 0.4 µM): 0.489
- relative viability (NCI-H2126; first compound 1.265 µM): 0.39
- relative viability (NCI-H2126; first compound 4 µM): 0.411
- relative viability (NCI-H2342; first compound 0.04 µM): 0.604
- relative viability (NCI-H2342; first compound 0.1265 µM): 0.57
- relative viability (NCI-H2342; first compound 0.4 µM): 0.694
- relative viability (NCI-H2342; first compound 1.265 µM): 0.809
- relative viability (NCI-H2342; first compound 4 µM): 0.663
- relative viability (NCI-H23; first compound 0.04 µM): 0.749
- relative viability (NCI-H23; first compound 0.1265 µM): 0.768
- relative viability (NCI-H23; first compound 0.4 µM): 0.812
- relative viability (NCI-H23; first compound 1.265 µM): 0.414
- relative viability (NCI-H23; first compound 4 µM): 0.592
- relative viability (NCI-H2405; first compound 0.04 µM): 0.381
- relative viability (NCI-H2405; first compound 0.1265 µM): 0.224
- relative viability (NCI-H2405; first compound 0.4 µM): 0.385
- relative viability (NCI-H2405; first compound 1.265 µM): 0.239
- relative viability (NCI-H2405; first compound 4 µM): 0.223
- relative viability (NCI-H322M; first compound 0.04 µM): 0.686
- relative viability (NCI-H322M; first compound 0.1265 µM): 0.746
- relative viability (NCI-H322M; first compound 0.4 µM): 0.66
- relative viability (NCI-H322M; first compound 1.265 µM): 0.373
- relative viability (NCI-H322M; first compound 4 µM): 0.417
- relative viability (PC-14; first compound 0.04 µM): 0.485
- relative viability (PC-14; first compound 0.1265 µM): 0.237
- relative viability (PC-14; first compound 0.4 µM): 0.432
- relative viability (PC-14; first compound 1.265 µM): 0.154
- relative viability (PC-14; first compound 4 µM): 0.167
- relative viability (RERF-LC-KJ; first compound 0.04 µM): 0.402
- relative viability (RERF-LC-KJ; first compound 0.1265 µM): 0.374
- relative viability (RERF-LC-KJ; first compound 0.4 µM): 0.324
- relative viability (RERF-LC-KJ; first compound 1.265 µM): 0.316
- relative viability (RERF-LC-KJ; first compound 4 µM): 0.292
- relative viability (SK-LU-1; first compound 0.04 µM): 0.607
- relative viability (SK-LU-1; first compound 0.1265 µM): 0.386
- relative viability (SK-LU-1; first compound 0.4 µM): 0.458
- relative viability (SK-LU-1; first compound 1.265 µM): 0.171
- relative viability (SK-LU-1; first compound 4 µM): 0.136
- relative viability (SW 1573; first compound 0.04 µM): 0.331
- relative viability (SW 1573; first compound 0.1265 µM): 0.304
- relative viability (SW 1573; first compound 0.4 µM): 0.402
- relative viability (SW 1573; first compound 1.265 µM): 0.231
- relative viability (SW 1573; first compound 4 µM): 0.233
- relative viability (SW 900; first compound 0.04 µM): 0.462
- relative viability (SW 900; first compound 0.1265 µM): 0.519
- relative viability (SW 900; first compound 0.4 µM): 0.285
- relative viability (SW 900; first compound 1.265 µM): 0.187
- relative viability (SW 900; first compound 4 µM): 0.139

From the supplement of paper PMC10307832
